Measured values from patent publication US7666446B2, “Oral formulation for delivery of poorly absorbed drugs” (ProCarrier, Inc., priority 2004, dated 2010).
Read-outs that look alike come from different tables or passages of the source.

Key:
[1] = test system: diabetes induced rats; assay: Serum glucose after intraduodenal insulin/PEP in diabetic rats; assay type: in vivo; conditions: insulin 50 IU/kg in carrier (100 units)
Source text: (§1) The abdominal muscle was sutured under the skin. […] Four rats were in each treatment group. […]

[2] = diabetic rats, intraduodenal, insulin 50 IU/kg in carrier (100 units)
Source text: as §1

[3] = test system: non-diabetic rats; assay: Serum glucose after intraduodenal insulin/PEP in non-diabetic rats; assay type: in vivo; conditions: insulin 50 IU/kg in carrier (100 units)
Source text: as §1

[4] = Plasma aztreonam after intraduodenal aztreonam/PEP (HPLC); assay type: in vivo; conditions: male, Sprague-Dawley, rat, rats
Method: as §1
Aztreonam solution (containing arginine as a pH adjuster) was mixed with a solution of methylcellulose, and this mixture was added to solutions of glucosamine and sucrose palmitate in water before administration to rats. […] The contents of aztreonam/PEP comprised an individual dosage of 40 mg/kg aztreonam, 400 mg/kg sucrose palmitate, glucosamine in a 1:4 mole ratio of aztreonam to glucosamine, methylcellulose in a 1:0.5 mole ratio of aztreonam to methylcellulose, and arginine in a 1:0.6 mole ratio of aztreonam to arginine. […] Plasma was analyzed by HPLC, and bioavailability was calculated.

[5] = Plasma netilmicin after intraduodenal netilmicin/PEP (HPLC); assay type: in vivo; conditions: male, Sprague-Dawley, rat, rats
Method: as §1
(§2) Netilmicin solution was mixed with a solution of methylcellulose, and this mixture was added to solutions of glucosamine and sucrose stearate in water before administration to rats. […] The contents of netilmicin/PEP comprised an individual dosage of 80 mg/kg netilmicin, 400 mg/kg sucrose stearate, glucosamine in a 1:4 mole ratio of netilmicin to glucosamine, and methylcellulose in a 1:0.5 mole ratio of netilmicin to methylcellulose. […] Plasma was analyzed by HPLC, and bioavailability was calculated.

[6] = Plasma calcitonin after intraduodenal calcitonin/PEP (ELISA); assay type: in vivo; conditions: male, Sprague-Dawley, rat, rats, read-out: Average plasma concentration of Calcitonin
Method: as §1
Plasma was analyzed by ELISA according to methods well known in the art.

[7] = Decomposition test: rhGH concentration by ELISA after shaking; assay type: physicochemical
Method: A solution of rhGH (5 ng/mL) was prepared in 20 mM phosphate buffer. The phosphate buffer was prepared in triple-distilled, filtered water (0.22 μm filter), and its pH was adjusted to pH 7.4 with sodium hydroxide solution. Solutions of rhGH were shaken for 1 min at high speed with a vortex mixer (Scientific Industries Inc.). After shaking, samples were equilibrated for specific time intervals at room temperature. Concentrations of rhGH were then determined by ELISA according to methods well known in the art.

[8] = rat, in vivo
Method: To determine absorption from the intestine, male Sprague Dawley rats weighing 250-300 g with free access to water were fasted for about 18 h prior to experiments. These rats were anesthetized and maintained with Ketamine/Xylazine (([…])/(80 mg/kg)) by intraperitoneal injection. The small intestine was exposed by a midline abdominal incision. A small incision was made in the stomach to insert a polyethylene tube (i.d. 0.76 mm, o.d. 1.22 mm, Clay Adams), toward the middle duodenum, which was closed at the exposed end by a stopcock to prevent drainage of drug solution from the duodenum. Blood samples were taken with a heparinized syringe through the jugular vein catheter at predetermined time intervals. After collecting, samples were coagulated for about 90 min and then were centrifuged for 10 min at 6000 rpm. The supernatant was removed and stored at −20° C. Samples were analyzed for hGH protein levels with a Human Growth Hormone ELISA Kit (coated plate, ICN Diagnostics) according to the manufacturer's protocol.
For the controls, either glucosamine 40 mg/kg plus sucrose laurate 40 mg/kg (i.e., 100 units of carrier) or 10 mg/kg of rhGH (Advanced Protein Technologies Inc., Suwon, Korea) were administered per intraduodenum. […] To evaluate the effect of varying the amount of carrier administered, the amount of rhGH was held at 3 mg/kg rhGH and the Tmax was measured. […] In the case of intraduodenal administration, the controls were fixed at 10 units of carrier. The amount of rhGH was varied to include 1, 3, and 10 mg/kg of rhGH.
Finally, to evaluate the effectiveness of the carrier itself, the type of carrier was varied while maintaining the same level of rhGH (3 mg/kg).

[9] = Intraduodenal absorption of rhGH/PEP solutions, rhGH by ELISA (Example 3); assay type: in vivo, male Sprague-Dawley rats; conditions: rats, rhGH administered without PEP solution
Method: RhGH solutions containing a promoter (glucosamine or poly-L-lysine), an enhancer (sucrose laurate 16), and a protector (methylcellulose) were prepared in water according to the proportions set out in Table 2.
as §1

[10] = Plasma isepamicin after intraduodenal isepamicin/PEP (HPLC); assay type: in vivo; conditions: male, Sprague-Dawley, rat, other: intraduodenal, rats
Method: as §1
Isepamicin solution was mixed with methylcellulose solution, and the resulting mixture was mixed with solutions of glucosamine and sucrose stearate 16 in water before administration to rats. […] The contents of isepamicin/PEP comprised an individual dosage of 75 mg/kg isepamicin, 400 mg/kg sucrose stearate, glucosamine in a 1:4 mole ratio of isepamicin to glucosamine, and methylcellulose in a 1:0.5 mole ratio of isepamicin to methylcellulose. […] Plasma was analyzed by HPLC, and bioavailability was calculated.

[11] = Plasma teicoplanin after intraduodenal teicoplanin/PEP (HPLC); assay type: in vivo; conditions: rats
Method: as §1
as §2, with “Teicoplanin” for “Netilmicin”, “teicoplanin/PEP” for “netilmicin/PEP”, “64” for “80”, “teicoplanin,” for “netilmicin,”, “teicoplanin” for “netilmicin”

## insulin: insulin given with methylcellulose, sucrose laurate 16 and glucosamine (insulin/PEP composition)
[1]
  hypoglycemic effect (serum glucose): significant hypoglycemic effects were observed
[2]
  serum insulin: detected
[3]
  hypoglycemic response (serum glucose): No significant hypoglycemic response

## C[C@H]1[C@H](NC(=O)/C(=N\OC(C)(C)C(=O)O)c2csc(N)n2)C(=O)N1S(=O)(=O)O [Aztreonam]
[4]; other: intraduodenal, aztreonam/PEP 40 mg/kg aztreonam, 60 min
  concentration at 60 min: 97 µg/mL
[4]; other: intraduodenal, aztreonam/PEP 40 mg/kg aztreonam, 90 min
  concentration at 90 min: 87.9 µg/mL
[4]; other: intraduodenal, aztreonam/PEP 40 mg/kg aztreonam, 120 min
  concentration at 120 min: 89.6 µg/mL
[4]; other: intraduodenal, aztreonam/PEP 40 mg/kg aztreonam, 180 min
  concentration at 180 min: 67 µg/mL
[4]; other: intraduodenal, aztreonam/PEP 40 mg/kg aztreonam, 240 min
  concentration at 240 min: 55.2 µg/mL
[4]; other: intraduodenal, aztreonam/PEP (40 mg/kg aztreonam, 400 mg/kg sucrose palmitate, glucosamine, methylcellulose, arginine), 30 min
  concentration at 30 min: 95.4 µg/mL
[4]; aztreonam/PEP 40 mg/kg aztreonam, read-out: percent bioavailability
  bioavailability: 91.1 ± 14.6%

## CCN[C@@H]1C[C@H](N)[C@@H](O[C@H]2OC(CN)=CC[C@H]2N)[C@H](O)[C@H]1O[C@H]1OC[C@](C)(O)[C@H](NC)[C@H]1O [Netilmicin]
[5]; other: intraduodenal, netilmicin/PEP 80 mg/kg netilmicin, 60 min
  concentration at 60 min: 70.7 µg/mL
[5]; other: intraduodenal, netilmicin/PEP 80 mg/kg netilmicin, 120 min
  concentration at 120 min: 39300 ng/mL
[5]; other: intraduodenal, netilmicin/PEP 80 mg/kg netilmicin, 180 min
  concentration at 180 min: 38900 ng/mL
[5]; other: intraduodenal, netilmicin/PEP 80 mg/kg netilmicin, 240 min
  concentration at 240 min: 35800 ng/mL
[5]; other: intraduodenal, netilmicin/PEP 80 mg/kg netilmicin, 360 min
  concentration at 360 min: 34800 ng/mL
[5]; other: intraduodenal, netilmicin/PEP (80 mg/kg netilmicin, 400 mg/kg sucrose stearate, glucosamine, methylcellulose), 30 min
  concentration at 30 min: 62.1 µg/mL
[5]; netilmicin/PEP 80 mg/kg netilmicin, read-out: percent bioavailability
  bioavailability: 73%

## CC(C)C[C@H](NC(=O)[C@H](CCCCN)NC(=O)CNC(=O)[C@H](CC(C)C)NC(=O)[C@@H](NC(=O)[C@@H]1CSSC[C@H](N)C(=O)N[C@@H](CO)C(=O)N[C@@H](CC(N)=O)C(=O)N[C@@H](CC(C)C)C(=O)N[C@@H](CO)C(=O)N[C@@H]([C@@H](C)O)C(=O)N1)C(C)C)C(=O)N[C@@H](CO)C(=O)N[C@@H](CCC(N)=O)C(=O)N[C@@H](CCC(=O)O)C(=O)N[C@@H](CC(C)C)C(=O)N[C@@H](Cc1c[nH]cn1)C(=O)N[C@@H](CCCCN)C(=O)N[C@@H](CC(C)C)C(=O)N[C@@H](CCC(N)=O)C(=O)N[C@H](C(=O)N[C@@H](Cc1ccc(O)cc1)C(=O)N1CCC[C@H]1C(=O)N[C@@H](CCCNC(=N)N)C(=O)N[C@H](C(=O)N[C@@H](CC(N)=O)C(=O)N[C@H](C(=O)NCC(=O)N[C@@H](CO)C(=O)NCC(=O)N[C@H](C(=O)N1CCC[C@H]1C(N)=O)[C@@H](C)O)[C@@H](C)O)[C@@H](C)O)[C@@H](C)O [Calcitonin]
[6]; calcitonin/PEP 2 mg/kg calcitonin, 30 min
  level at 0.5 h: 8.61 ng/mL
[6]; calcitonin/PEP 2 mg/kg calcitonin, 45 min
  level at 0.75 h: 10.9 ng/mL
[6]; calcitonin/PEP 2 mg/kg calcitonin, 60 min
  level at 1 h: 7.55 ng/mL
[6]; calcitonin/PEP 2 mg/kg calcitonin, 90 min
  level at 1.5 h: 3.36 ng/mL
[6]; calcitonin/PEP 2 mg/kg calcitonin, 120 min
  level at 2 h: 1.72 ng/mL
[6]; calcitonin/PEP 2 mg/kg calcitonin, 180 min
  level at 3 h: 0.69 ng/mL
[6]; calcitonin/PEP 2 mg/kg calcitonin, 240 min
  level at 4 h: 0.99 ng/mL
[6]; calcitonin/PEP (2 mg/kg calcitonin, 40 mg/kg sucrose laurate 16, glucosamine, methylcellulose), 15 min
  level at 0.25 h: 8.02 ng/mL

## rhGH: recombinant human growth hormone
[7]; 0 min, 5 ng/mL rhGH, phosphate buffer pH 7.4
  Concentration rhGH: 5 ng/mL
[7]; 1 min after shaking, room temperature
  Concentration rhGH: 1.05 ng/mL
[7]; 30 min after shaking, room temperature
  Concentration rhGH: 0.65 ng/mL
[7]; 60 min after shaking, room temperature
  Concentration rhGH: 0.43 ng/mL
[7]; 90 min after shaking, room temperature
  Concentration rhGH: 0.40 ng/mL
[8]; 3 mg/kg
  Tmax: less than 20 min
  absorption of rhGH: increased absorption
  bioavailability: 7.1%
[8]; sc, 0.1 mg/kg
  peak serum rhGH concentration: 73 ng/mL
[9]
  rhGH in serum: not detected

## CN[C@@H]1[C@@H](O)[C@@H](O[C@@H]2[C@@H](O)[C@H](O[C@H]3O[C@H](CN)[C@@H](O)[C@H](O)[C@H]3O)[C@@H](N)C[C@H]2NC(=O)[C@@H](O)CN)OC[C@]1(C)O [Isepamicin]
[10]; isepamicin/PEP 75 mg/kg isepamicin, 60 min
  concentration at 60 min: 102 µg/mL
[10]; isepamicin/PEP 75 mg/kg isepamicin, 120 min
  concentration at 120 min: 73.6 µg/mL
[10]; isepamicin/PEP 75 mg/kg isepamicin, 180 min
  concentration at 180 min: 49900 ng/mL
[10]; isepamicin/PEP 75 mg/kg isepamicin, 240 min
  concentration at 240 min: 43900 ng/mL
[10]; isepamicin/PEP 75 mg/kg isepamicin, 360 min
  concentration at 360 min: 35800 ng/mL
[10]; isepamicin/PEP (75 mg/kg isepamicin, 400 mg/kg sucrose stearate, glucosamine, methylcellulose), 30 min
  concentration at 30 min: 84.2 µg/mL

## Teicoplanin
[11]; teicoplanin/PEP 64 mg/kg teicoplanin
  percent bioavailability: 35.07%
[11]; teicoplanin/PEP 64 mg/kg teicoplanin, 60 min
  Average plasma concentration Teicoplanin: 9.50 µg/mL
[11]; teicoplanin/PEP 64 mg/kg teicoplanin, 120 min
  Average plasma concentration Teicoplanin: 10.36 µg/mL
[11]; teicoplanin/PEP 64 mg/kg teicoplanin, 180 min
  Average plasma concentration Teicoplanin: 12.22 µg/mL
[11]; teicoplanin/PEP 64 mg/kg teicoplanin, 240 min
  Average plasma concentration Teicoplanin: 11.29 µg/mL
[11]; teicoplanin/PEP (64 mg/kg teicoplanin, 400 mg/kg sucrose stearate, glucosamine, methylcellulose), 30 min
  Average plasma concentration Teicoplanin: 11.14 µg/mL
